Reference: ChEMBL document CHEMBL1201862, “PubChem BioAssay data set” (2004)
Active and inactive are the calls of the source.

What was measured:
[1] = biological target: T1, Endoribonuclease toxin MazF (Escherichia coli K-12, UniProt P0AE70); test: MazF toxin RNase activators, dose response, biochemical, fluorescence, single-stranded RNA substrate, uHTS hits (AID 588481); assay type: functional
[2] = biological target: T1, Endoribonuclease toxin MazF; test: fluorescent RNA oligo signal without MazF, dose response, counter-screen for MazEF activator project, biochemical, fluorescence, single-stranded RNase substrate (AID 588502); assay type: functional
[3] = microbe, parasite or virus in culture; assay type: functional; settings: Mycobacterium tuberculosis
[4] = biological target: Glucose-6-phosphate 1-dehydrogenase (Homo sapiens, UniProt P11413); test: human G6PD enzyme inhibitors, dose response, selectivity assay for P. falciparum G6PD inhibitor project, biochemical, fluorescence (AID 504792); assay type: functional
Chain of Glucose-6-phosphate 1-dehydrogenase (P11413 whole entry): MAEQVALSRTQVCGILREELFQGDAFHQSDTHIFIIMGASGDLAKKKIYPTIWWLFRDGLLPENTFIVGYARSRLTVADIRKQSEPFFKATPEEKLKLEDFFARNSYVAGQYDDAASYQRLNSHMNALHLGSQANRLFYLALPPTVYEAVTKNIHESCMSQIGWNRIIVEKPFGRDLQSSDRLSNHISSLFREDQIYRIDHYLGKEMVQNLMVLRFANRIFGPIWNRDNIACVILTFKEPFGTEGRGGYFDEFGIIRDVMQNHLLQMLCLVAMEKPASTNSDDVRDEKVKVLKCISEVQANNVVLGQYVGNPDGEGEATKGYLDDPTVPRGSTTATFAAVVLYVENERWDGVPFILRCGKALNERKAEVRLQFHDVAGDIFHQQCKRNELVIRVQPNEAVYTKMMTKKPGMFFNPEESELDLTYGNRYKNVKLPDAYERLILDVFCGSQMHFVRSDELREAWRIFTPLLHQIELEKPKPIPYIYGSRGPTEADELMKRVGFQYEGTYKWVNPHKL

[5] = biological target: Heat shock protein HSP 90-alpha (Homo sapiens, UniProt P07900); assay type: functional, organism-based
[6] = biological target: Voltage-gated inwardly rectifying potassium channel KCNH2 (Homo sapiens, UniProt Q12809); settings: Potency;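 further: confirmatory quantitative high-throughput screen measuring inhibition of hERG channel activity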
Chain of Voltage-gated inwardly rectifying potassium channel KCNH2 (Q12809 whole entry): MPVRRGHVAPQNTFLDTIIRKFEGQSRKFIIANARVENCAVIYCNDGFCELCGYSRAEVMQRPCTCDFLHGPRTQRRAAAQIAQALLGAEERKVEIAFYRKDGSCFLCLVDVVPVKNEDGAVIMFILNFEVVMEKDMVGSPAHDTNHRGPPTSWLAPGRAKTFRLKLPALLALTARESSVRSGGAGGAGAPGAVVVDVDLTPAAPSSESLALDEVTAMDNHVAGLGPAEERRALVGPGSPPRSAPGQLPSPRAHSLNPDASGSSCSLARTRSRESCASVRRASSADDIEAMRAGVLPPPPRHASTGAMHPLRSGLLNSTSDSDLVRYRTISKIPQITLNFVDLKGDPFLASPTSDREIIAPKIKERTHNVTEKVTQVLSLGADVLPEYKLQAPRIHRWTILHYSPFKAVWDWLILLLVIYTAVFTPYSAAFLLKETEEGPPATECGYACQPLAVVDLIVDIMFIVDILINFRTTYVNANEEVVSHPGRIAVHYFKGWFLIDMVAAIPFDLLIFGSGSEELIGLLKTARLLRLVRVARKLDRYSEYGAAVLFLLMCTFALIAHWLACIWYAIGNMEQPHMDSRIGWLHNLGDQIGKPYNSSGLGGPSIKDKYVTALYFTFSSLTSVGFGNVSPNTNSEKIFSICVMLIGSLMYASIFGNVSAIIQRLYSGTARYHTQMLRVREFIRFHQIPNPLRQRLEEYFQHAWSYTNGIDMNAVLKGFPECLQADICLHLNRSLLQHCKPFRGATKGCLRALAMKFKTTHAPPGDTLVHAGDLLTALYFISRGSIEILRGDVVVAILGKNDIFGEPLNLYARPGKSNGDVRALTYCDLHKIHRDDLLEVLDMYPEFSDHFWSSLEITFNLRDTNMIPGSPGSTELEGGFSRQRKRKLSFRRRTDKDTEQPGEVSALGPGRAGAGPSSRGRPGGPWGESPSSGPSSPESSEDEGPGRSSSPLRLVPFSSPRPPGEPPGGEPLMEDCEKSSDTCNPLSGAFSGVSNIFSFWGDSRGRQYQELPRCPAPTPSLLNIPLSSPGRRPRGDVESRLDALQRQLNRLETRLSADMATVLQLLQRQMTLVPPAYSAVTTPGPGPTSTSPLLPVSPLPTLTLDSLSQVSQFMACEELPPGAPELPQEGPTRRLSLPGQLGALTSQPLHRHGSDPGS

BJ [7] = test: cytotoxicity toward BJ-TERT fibroblasts, dose response, cell-based, RAS-independent, luminescence (AID 1933); assay type: functional, Homo sapiens; settings: Homo sapiens, BJ
BJ [8] = test: cells; assay type: functional, cell-based, Homo sapiens; settings: Homo sapiens, BJ
BJ [9] = test: cytotoxicity toward BJ-TERT-LT-ST fibroblasts, dose response, cell-based, RAS-independent, luminescence (AID 1935); assay type: functional, Homo sapiens; settings: Homo sapiens, BJ;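 further: BJ fibroblasts immortalized with TERT plus LT and ST oncogenes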
[10] = cytotoxicity toward DRD oncogenic fibroblasts, dose response, cell-based, non-viral oncogenic, luminescence (AID 1934); assay type: functional; settings: Homo sapiens
[11] = biological target: T2, Short transient receptor potential channel 4 (Mus musculus, UniProt Q9QUQ5); test: mouse TRPC4 channel inhibitors, dose response, cell-based, HEK293 TRPC4/mu-opioid, Fluo-4 calcium (AID 434942); assay type: functional;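 further: potency of inhibitors blocking the TRPC4 calcium response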
T2 sequence (Q9QUQ5 whole entry): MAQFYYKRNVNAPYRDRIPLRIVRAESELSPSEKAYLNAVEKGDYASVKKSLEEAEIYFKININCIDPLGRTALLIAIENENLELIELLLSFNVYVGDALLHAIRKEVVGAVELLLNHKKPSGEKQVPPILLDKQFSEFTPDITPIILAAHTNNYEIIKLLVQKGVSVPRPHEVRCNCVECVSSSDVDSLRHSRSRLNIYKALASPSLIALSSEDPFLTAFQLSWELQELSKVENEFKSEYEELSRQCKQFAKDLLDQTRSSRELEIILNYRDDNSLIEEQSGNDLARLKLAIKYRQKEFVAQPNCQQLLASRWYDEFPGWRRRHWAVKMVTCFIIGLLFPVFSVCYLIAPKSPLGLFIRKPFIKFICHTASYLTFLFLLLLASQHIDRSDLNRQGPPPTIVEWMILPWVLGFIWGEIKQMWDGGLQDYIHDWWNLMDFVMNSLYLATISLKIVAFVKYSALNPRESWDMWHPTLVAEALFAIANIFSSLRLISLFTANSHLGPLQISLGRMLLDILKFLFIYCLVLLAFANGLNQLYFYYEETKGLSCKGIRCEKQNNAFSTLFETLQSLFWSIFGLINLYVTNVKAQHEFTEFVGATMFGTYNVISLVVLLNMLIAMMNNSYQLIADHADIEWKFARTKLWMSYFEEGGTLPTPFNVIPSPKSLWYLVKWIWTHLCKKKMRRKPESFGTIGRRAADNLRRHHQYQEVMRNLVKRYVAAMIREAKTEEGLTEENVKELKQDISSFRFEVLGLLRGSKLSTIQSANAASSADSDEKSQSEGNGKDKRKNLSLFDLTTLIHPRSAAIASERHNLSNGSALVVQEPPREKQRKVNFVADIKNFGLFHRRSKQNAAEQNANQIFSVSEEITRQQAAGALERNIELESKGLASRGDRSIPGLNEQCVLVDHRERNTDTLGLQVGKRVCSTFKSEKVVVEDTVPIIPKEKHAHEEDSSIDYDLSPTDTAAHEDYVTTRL

[12] = cytotoxicity in HEK-293T cells, dose response, cytotoxicity control for TCR NF-kB inhibitor project, luminescence, T-cell screen hits (AID 489026); assay type: functional, cell-based;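 further: cells exposed to compound about 14 hours before the viability readout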
BJ [13] = test: cytotoxicity toward Ras-transformed BJeLR fibroblasts, dose response, cell-based, alamar blue fluorescence, cherrypicked samples (AID 2631); assay type: functional; settings: Homo sapiens;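 further: confirmatory dose-response assay in RAS-dependent BJ fibroblasts engineered with TERT, LT and ST, with cytotoxicity read by fluorescence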
[14] = HeLa cell cytotoxicity, dose response, cytotoxicity control for MgcRacGAP inhibitor project (AID 624300); assay type: functional
[15] = biological target: T3, Rac GTPase-activating protein 1 (Homo sapiens, UniProt Q9H0H5); test: MgcRacGAP GTPase-activating activity inhibitors, confirmation, biochemical, ADP Hunter fluorescence, primary and confirmatory (AID 624330); assay type: functional
T3 sequence (Q9H0H5 whole entry): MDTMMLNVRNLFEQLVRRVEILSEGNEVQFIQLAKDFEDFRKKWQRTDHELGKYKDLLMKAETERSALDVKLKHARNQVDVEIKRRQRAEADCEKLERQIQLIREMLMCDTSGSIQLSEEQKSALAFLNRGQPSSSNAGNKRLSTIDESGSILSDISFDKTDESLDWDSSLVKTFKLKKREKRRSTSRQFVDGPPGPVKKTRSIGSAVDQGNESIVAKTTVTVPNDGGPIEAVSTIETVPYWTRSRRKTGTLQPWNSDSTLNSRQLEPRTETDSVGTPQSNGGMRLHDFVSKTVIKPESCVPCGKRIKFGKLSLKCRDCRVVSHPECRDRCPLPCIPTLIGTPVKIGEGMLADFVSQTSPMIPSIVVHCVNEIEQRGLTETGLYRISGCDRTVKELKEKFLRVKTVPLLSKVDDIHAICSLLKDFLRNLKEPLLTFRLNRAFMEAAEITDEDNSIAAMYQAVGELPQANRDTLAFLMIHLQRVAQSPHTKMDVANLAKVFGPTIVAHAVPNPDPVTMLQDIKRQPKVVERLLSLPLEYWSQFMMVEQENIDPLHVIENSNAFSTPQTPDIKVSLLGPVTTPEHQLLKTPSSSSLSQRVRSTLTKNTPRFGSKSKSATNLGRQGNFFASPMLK

[16] = biological target: T4, DNA repair protein RAD52 homolog (Homo sapiens, UniProt P43351); assay type: functional, biochemical
T4 sequence (P43351 whole entry): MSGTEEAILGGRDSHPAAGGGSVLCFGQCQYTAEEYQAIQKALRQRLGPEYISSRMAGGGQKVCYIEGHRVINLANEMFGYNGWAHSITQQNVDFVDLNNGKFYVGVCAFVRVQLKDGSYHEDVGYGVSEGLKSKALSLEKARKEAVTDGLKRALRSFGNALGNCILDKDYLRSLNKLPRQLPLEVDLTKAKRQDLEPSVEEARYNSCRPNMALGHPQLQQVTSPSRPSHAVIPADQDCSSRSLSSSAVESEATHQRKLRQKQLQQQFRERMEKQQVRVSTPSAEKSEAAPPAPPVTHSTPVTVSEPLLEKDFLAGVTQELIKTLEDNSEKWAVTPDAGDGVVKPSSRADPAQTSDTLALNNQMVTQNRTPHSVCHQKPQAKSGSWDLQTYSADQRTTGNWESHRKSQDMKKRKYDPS

Paired box protein Pax-8 = Paired box protein Pax-8 (Homo sapiens, UniProt Q06710); test: inhibitors of PAX8-driven TPO luciferase reporter, dose response, RMG-I cells, cherry-pick (AID 687027); assay type: functional, cell-based;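 further: luciferase reporter driven by Pax8 target thyroperoxidase promoter measured by SteadyGlo luminescence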
Chain of Paired box protein Pax-8 (Q06710 whole entry): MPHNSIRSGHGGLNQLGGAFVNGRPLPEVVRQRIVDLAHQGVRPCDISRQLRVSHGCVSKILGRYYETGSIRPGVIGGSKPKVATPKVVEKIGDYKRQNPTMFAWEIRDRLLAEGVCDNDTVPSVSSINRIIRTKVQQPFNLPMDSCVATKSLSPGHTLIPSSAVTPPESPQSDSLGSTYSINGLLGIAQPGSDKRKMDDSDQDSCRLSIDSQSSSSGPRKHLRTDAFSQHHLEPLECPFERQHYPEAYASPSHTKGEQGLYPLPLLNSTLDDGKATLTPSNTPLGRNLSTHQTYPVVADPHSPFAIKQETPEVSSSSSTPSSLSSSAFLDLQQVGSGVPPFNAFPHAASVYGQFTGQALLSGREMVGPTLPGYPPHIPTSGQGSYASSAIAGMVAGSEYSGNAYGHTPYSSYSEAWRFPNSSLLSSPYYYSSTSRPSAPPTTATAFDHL

[17] = non-specific cell cytotoxicity, dose response, cytotoxicity control for PAX8 inhibitor project, plate reader, dry powder samples (AID 743021); assay type: functional, cell-based

T1 sequence (P0AE70 whole entry): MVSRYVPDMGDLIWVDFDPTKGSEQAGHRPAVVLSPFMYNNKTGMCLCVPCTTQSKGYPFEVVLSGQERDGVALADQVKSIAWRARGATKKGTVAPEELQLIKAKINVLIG

## Cc1c(C=NNC(=O)c2ccc(Br)cc2)c2ccccn2c1C(=O)c1ccncc1
[1]
  EC50: > 99 µM (inactive)
[2]
  EC50: > 99 µM (inactive)

## CCCCCCCCn1sccc1=O
[3]
  CC50: 11.3 µM (active)
[4]
  IC50: 59.3 µM (inactive)
[5]
  AC50: 0.649 µM (active)
[6]
  AC50: 44.7 µM (inconclusive)

## Cc1cc(C)c2nc(C)cc(N/N=C/c3ccc(O)cc3)c2c1
BJ [7]
  EC50: 2.56 µM (inconclusive)
BJ [8]
  EC50: 5.87 µM (active)
BJ [9]
  EC50: 2.78 µM (inconclusive)
[10]
  EC50: 5.11 µM (inconclusive)
[11]
  EC50: 5.96 µM (active)
[12]
  IC50: 18.1 µM (active)
BJ [13]
  EC50: 0.555 µM (active)
[14]
  CC50: 13.3 µM (active)
[15]
  IC50: 18.2 µM (active)
[16]
  AC50: 0.939 µM (active)
Paired box protein Pax-8
  AC50: 9.08 µM (active)
[17]
  AC50: 50.5 µM (active)
